The subject of this assay is MAGI-CCR5 cells, HIV-1 Ba-L, beta-gal luminescence, 48 h. In words: HIV-1 replication inhibition, CCR5-tropic virus, dose response, MAGI-CCR5 cells, HIV-1 Ba-L, 5% and 10% serum, set 2 (AID 2788).
The mark [1] stands for this setting: measured here: IC50 in 10% serum.

Activity calls are given as the source filed them.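 The calls were made as follows: active = compound cutting the HIV-1 infection reporter signal by at least half at some tested dose; inactive = the rest.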 Bounds are passed on as bounds.

What is called IC50 is the point on the concentration scale where inhibition reaches its midpoint. For `O=c1c(=Cc2cc([N+](=O)[O-])cc([N+](=O)[O-])c2O)sc2nc3ccccc3n12`, the IC50 was 52.1 µM. Moreover, the IC50 under setting [1] is greater than 100 µM.
Taken in the same sequence, the figures for `CCS(=O)(=O)C1=NSC2=NC(=O)/C(=C\c3ccc(OS(=O)(=O)c4ccccc4)cc3)C(=N)N21` were > 100 µM (inactive) and greater than 100 µM.
The matching figures for `Cc1cc(C)cc(-n2cccc2/C=C2/C(=N)N3C(=NC2=O)SN=C3S(C)(=O)=O)c1`: 45.8 µM and 55.6 µM.
The matching figures for `Cc1ccc(S(=O)(=O)Oc2ccc(/C=C3/C(=N)N4C(=NC3=O)SN=C4S(C)(=O)=O)cc2)cc1`: 78.5 µM and greater than 100 µM.
As to `Cc1ccc(-n2cccc2/C=C2/C(=N)N3C(=NC2=O)SN=C3S(C)(=O)=O)cc1Cl`, the IC50 was 47.3 µM. Further, under setting [1], the IC50 is 60.8 µM.
Turning to `O=C1NC(=S)N(c2ccc(F)cc2)C(=O)/C1=C/c1ccco1`, the IC50 is 52.9 µM. Further, the IC50 under setting [1] is 48.7 µM.
Take `CC1(C)CC(=O)C2=C(C1)c1c(ccc3ccccc13)NC2c1cc([N+](=O)[O-])cc([N+](=O)[O-])c1O` (stereo not drawn): the IC50 was 15.4 µM. This compound yielded an IC50 under setting [1] of 35.6 µM.
For `COc1cc(C=NNc2ccc(Cl)c(C(=O)O)c2)ccc1OC(=O)c1ccccc1F`, the IC50 is > 100 µM (inactive). For the same compound, the IC50 under setting [1] was greater than 100 µM.
The matching figures for `CC(C)S(=O)(=O)C1=NSC2=NC(=O)/C(=C\c3ccc(-c4ccccc4)o3)C(=N)N21`: 21.9 µM and 44 µM.
Take `Cc1ccc(-n2c(O)c(C=Nc3ccccc3-c3n[nH]c(=S)[nH]c3=O)c3ccccc3c2=O)c(C)c1`: the IC50 was 18 µM. Besides, the IC50 under setting [1] came out at 23 µM.
On to `COc1ccc(C(=O)Oc2ccc(C=NNc3ccc(Cl)c(C(=O)O)c3)cc2OC)cc1`, for which the IC50 is 56.4 µM. This compound gave an IC50 under setting [1] of 81.4 µM.
The matching figures for `O=C(O)c1cc(NN=Cc2ccc(-c3ccccc3)cc2)ccc1Cl`: 94 µM and greater than 100 µM.
Regarding `CS(=O)(=O)C1=NSC2=NC(=O)/C(=C\c3ccc(OS(=O)(=O)c4ccccc4)cc3)C(=N)N21`, the IC50 is > 100 µM (inactive). The compound further showed an IC50 under setting [1] greater than 100 µM.
The matching figures for `CC(C)S(=O)(=O)C1=NSC2=NC(=O)/C(=C\c3ccc(-c4cccc(C(=O)O)c4)o3)C(=N)N21`: 45.6 µM and 50.5 µM.
Turning to `O=C(O)c1ccccc1C(=O)N(Cc1cccc(Oc2ccc(Cl)cc2)c1)[C@H]1CCCc2ccccc21`, the IC50 is 16.2 µM. In addition, under setting [1], the IC50 was 38.2 µM.
For `COc1ccc(OC)c(N2C(=O)/C(=C/c3ccco3)C(=O)NC2=S)c1`, the IC50 is 58.5 µM. This compound also displayed an IC50 under setting [1] of 52.8 µM.
Take `COc1ccccc1NS(=O)(=O)c1cccc(-n2c(O)c(C=Nc3ccccc3C(=O)O)c3ccccc3c2=O)c1`: the IC50 is 49 µM. For the same compound, the IC50 under setting [1] came to 54.9 µM.
Taken in the same sequence, the figures for `COc1cc(C=NNc2ccc(Cl)c(C(=O)O)c2)ccc1OC(=O)c1ccc(F)cc1` were 96.5 µM and greater than 100 µM.
As to `CS(=O)(=O)C1=NSC2=NC(=O)/C(=C\c3cccn3-c3ccc(Cl)cc3)C(=N)N21`, the IC50 was 63.8 µM. The compound further returned an IC50 under setting [1] greater than 100 µM.
